This is an account of results in patent US4981792A, “Immunosuppressant compound” (Merck & Co., Inc., priority 1988, dated 1991).

Experiment [1] has as its system mouse T lymphocytes. Nature of the experiment: T-cell proliferation assay (ionomycin plus PMA induced, tritiated thymidine uptake). The class given is cell-based, mouse (C57Bl/6). As for the experimental part:
The principle of this assay is to measure the proliferation of mouse T lymphocytes stimulated with the combination of ionomycin plus PMA. A positive sample in this assay will inhibit T-cell proliferation, as indicated by reduced tritiated thymidine uptake.
Purified demethomycin, as prepared by HPLC above, was dissolved in absolute ethanol at 1 mg/ml.
Spleens from C57Bl/6 mice were taken under sterile conditions and gently dissociated in ice-cold RPMI 1640 culture medium (GIBCO, Grand Island, N.Y.) supplemented with 10% heat-inactivated fetal calf serum (GIBCO). Cells were pelleted by centrifugation at 1500 rpm for 8 minutes. Contaminating red cells were removed by treating the pellet with ammonium chloride lysing buffer (GIBCO) for 2 minutes at 4° C. Cold medium was added and cells were again centrifuged at 1500 rpm for 8 minutes. T lymphocytes were then isolated by separation of the cell suspension on nylon wool columns as follows: Nylon wool columns were prepared by packing approximately 4 grams of washed and dried nylon wool into 20 ml plastic syringes. The columns were sterilized by autoclaving at 250° F. for 30 minutes. Nylon wool columns were wetted with warm (37° C.) culture medium and rinsed with the same medium. Washed spleen cells resuspended in warm medium were slowly applied to the nylon wool. The columns were then incubated in an upright position at 37° C. for 1 hour. Non-adherent T lymphocytes were eluted from the columns with warm culture medium and the cell suspensions were spun as above.
Purified T lymphocytes were resuspended at 2.5×10^5 cells/ml in complete culture medium composed of RPMI 1640 medium with 10% neat-inactivated fetal calf serum, […], 1 mM sodium pyruvate, 2×10^-5 M 2-mercaptoethanol and 50 μg/ml gentamycin. Ionomycin was added at 250 ng/ml and PMA at 10 ng/ml. The cell suspension was immediately distributed into 96 well flat-bottom microculture plates (Costar) at 200 μl/well. The control, being the medium without test drug, and various below-indicated dilutions of the sample (above-describedpurified demethomycin; to be tested were then added in triplicate wells at 20 μl/well. L-679,934 was used as a standard. The culture plates were then incubated at 37° C. in a humidified atmosphere of 5% CO2 -95% air for 44 hours. The proliferation of T lymphocytes was assessed by measurement of tritiated thymidine incorporation. After 44 hours of culturing, the cells were pulse-labelled with 2 μCi/well of tritiated thymidine (NEN, Cambridge, MA). After another 4 hours of incubation, cultures were harvested on glass fiber filters using a multiple sample narvester. Radioactivity of filter discs corresponding to individual wells was measured by standard liquid scintillation counting methods (Betacounter). Mean counts per minute of replicate wells were calculated and the results expressed as percent inhibition of tritiated thymidine uptake (proliferation) as follows: [formula]
1. Mouse T cell cultures were pulsed with ^3 Hthymidine for 4 hours
prior to harvesting at 48 hours.

For experiment [2] the following is noted: reputed; immunosuppressant, vs cyclosporin; cited from earlier work.

pIC50: −log10 of the molar value. Where “and” joins values, the source holds several entries; their conditions need not be identical. Equal entries are not always repeated. Entries after “also recorded” stand apart in the source; their conditions may differ. Where two headings read alike, the source gives them in different places.

With `C=CC[C@@H]1/C=C(\C)C[C@H](C)C[C@H](OC)[C@H]2O[C@@](O)(C(=O)C(=O)N3CCCC[C@H]3C(=O)O[C@H](/C(C)=C/[C@@H]3CC[C@@H](O)[C@H](OC)C3)[C@H](C)[C@@H](O)CC1=O)[C@H](C)C[C@@H]2OC` [L-679,934, reference compound], in experiment [1] (Mus musculus, T-lymphocyte, read-out: % inhibition of T-cell proliferation (standard)), the inhibition at 0.01 µg/mL is 99%. The “effectiveness relative to cyclosporin” value in experiment [2] is recorded as 100 times.
For the molecule `C=CC[C@@H]1/C=C(\C)C[C@H](C)C[C@H](OC)[C@H]2O[C@@](O)(C(=O)C(=O)N3CCCC[C@H]3C(=O)O[C@H](/C(C)=C/[C@@H]3CC[C@@H](O)[C@H](O)C3)[C@H](C)[C@@H](O)CC1=O)[C@H](C)C[C@@H]2OC` [demethomycin, 31-desmethoxy-31-hydroxy-L-679,934], the “Reversal of inhibition of T-cell proliferation by recombinant IL2” value in experiment [1] (50 μ/ml of IL2 (recombinant IL2) added at initiation of culture) was “reversed”. Moreover, the inhibition at 0.00029 µg/mL in experiment [1] (Mus musculus, T-lymphocyte, 0.29 ng/ml, harvest at 48 hours) came to 0%. Moreover, in experiment [1] (Mus musculus, T-lymphocyte, 0.44 ng/ml, harvest at 48 hours), the inhibition at 0.00044 µg/mL turned out to be 0%. Also, in experiment [1] (Mus musculus, T-lymphocyte, 0.66 ng/ml, harvest at 48 hours), the inhibition at 0.00066 µg/mL was found to be 36.8%. Besides, the inhibition at 0.00099 µg/mL in experiment [1] (Mus musculus, T-lymphocyte, 0.99 ng/ml, harvest at 48 hours) was 67.1%. In addition, in experiment [1] (Mus musculus, T-lymphocyte, 1.5 ng/ml, harvest at 48 hours), the inhibition at 0.0015 µg/mL stood at 80.5%. Further, in experiment [1] (Mus musculus, T-lymphocyte, 2.2 ng/ml, harvest at 48 hours), the inhibition at 0.0022 µg/mL was determined as 92.9%. The inhibition at 0.0033 µg/mL in experiment [1] (Mus musculus, T-lymphocyte, 3.3 ng/ml, harvest at 48 hours) is 97.2%. In addition, the inhibition at 0.005 µg/mL in experiment [1] (Mus musculus, T-lymphocyte, 5 ng/ml, harvest at 48 hours) worked out at 98.1%. Also, in experiment [1] (Mus musculus, T-lymphocyte, T-cell proliferation, harvest at 48 hours, read-out: IC50), the IC50 is 0.00086 µg/mL and 1.09 nM. Further, in experiment [1] (Mus musculus, T-lymphocyte, generally in the range, read-out: IC50, general range), the negative-log IC50 (pIC50) was 8.92 to 9.22. Besides, the “immunosuppressive activity / inhibition of T-cell activation (qualitative)” value in experiment [1] (T-cell proliferation assay) is recorded as “positive inhibition of T-cell activation; also recorded: positive immunosuppressive activity”.
